Assay: xn = mol fraction of the nth substance listed, in the solute-free solvent

COC(=O)Nc1nc2ccccc2[nH]1 + CCCO + O
solubility (g/100 g solution)
Conditions | 278.15 K | 283.15 K | 288.15 K | 293.15 K | 298.15 K | 303.15 K | 308.15 K | 313.15 K | 318.15 K
x2 = 0.03228 | 0.000759 | 0.000937 | 0.00117 | 0.00145 | 0.00179 | 0.00212 | 0.00255 | 0.00307 | 0.00365
x2 = 0.06986 | 0.00122 | 0.00153 | 0.00195 | 0.00246 | 0.00308 | 0.00372 | 0.00456 | 0.00552 | 0.00671
x2 = 0.1138 | 0.00157 | 0.00198 | 0.00262 | 0.00333 | 0.00428 | 0.00526 | 0.0066 | 0.00814 | 0.01
x2 = 0.1665 | 0.0017 | 0.00223 | 0.00302 | 0.00394 | 0.00516 | 0.00653 | 0.00832 | 0.0105 | 0.0132
x2 = 0.2308 | 0.0017 | 0.00229 | 0.00318 | 0.00426 | 0.0057 | 0.00739 | 0.00966 | 0.0124 | 0.016
x2 = 0.3105 | 0.00161 | 0.00218 | 0.0032 | 0.00441 | 0.00599 | 0.00796 | 0.0107 | 0.0141 | 0.0185
x2 = 0.4108 | 0.00149 | 0.0021 | 0.00313 | 0.00441 | 0.00614 | 0.00837 | 0.0115 | 0.0155 | 0.0208
x2 = 0.5455 | 0.00136 | 0.00196 | 0.00302 | 0.00436 | 0.00622 | 0.0087 | 0.0123 | 0.0169 | 0.0232
x2 = 0.7314 | 0.00123 | 0.00179 | 0.00287 | 0.00425 | 0.00617 | 0.00889 | 0.0128 | 0.0181 | 0.0254

CC(C)C(=O)Nc1ccc([N+](=O)[O-])c(C(F)(F)F)c1 + CCO + O
solubility (g/100 g solution)
Conditions | 278.15 K | 283.15 K | 288.15 K | 293.15 K | 298.15 K | 303.15 K | 308.15 K | 313.15 K | 318.15 K | 323.15 K
x2 = 0.04165 | 0.00282 | 0.00366 | 0.00476 | 0.00623 | 0.00797 | 0.0102 | 0.0129 | 0.0162 | 0.0203 | 0.0251
x2 = 0.08908 | 0.0183 | 0.0236 | 0.0305 | 0.0388 | 0.0499 | 0.0632 | 0.0793 | 0.0976 | 0.122 | 0.148
x2 = 0.1436 | 0.0774 | 0.0967 | 0.124 | 0.158 | 0.199 | 0.246 | 0.305 | 0.377 | 0.462 | 0.568
x2 = 0.2068 | 0.289 | 0.358 | 0.447 | 0.563 | 0.694 | 0.851 | 1.04 | 1.26 | 1.54 | 1.86
x2 = 0.2812 | 0.894 | 1.09 | 1.34 | 1.62 | 1.93 | 2.32 | 2.77 | 3.31 | 3.89 | 4.58
x2 = 0.3698 | 2.17 | 2.59 | 3.2 | 3.88 | 4.59 | 5.48 | 6.38 | 7.52 | 8.74 | 10.2
x2 = 0.4772 | 4.83 | 5.78 | 6.84 | 8.03 | 9.49 | 11 | 12.8 | 14.7 | 16.8 | 19.1
x2 = 0.6101 | 8.9 | 10.5 | 12.3 | 14.3 | 16.5 | 19 | 21.5 | 24.4 | 27.2 | 30.6
x2 = 0.7788 | 13.7 | 15.9 | 18.4 | 21.1 | 24.4 | 27.7 | 30.7 | 34.4 | 38.1 | 41.7

Nc1cc(-c2ccncc2)c[nH]c1=O + CCO + O
solubility (g/100 g solution)
Conditions | 278.15 K | 283.15 K | 288.15 K | 293.15 K | 298.15 K | 303.15 K | 308.15 K | 313.15 K | 318.15 K | 323.15 K
x2 = 0.04165 | 0.00114 | 0.00134 | 0.00159 | 0.00187 | 0.00218 | 0.00251 | 0.00288 | 0.00327 | 0.00372 | 0.00424
x2 = 0.08908 | 0.00176 | 0.00207 | 0.00246 | 0.00288 | 0.00334 | 0.00384 | 0.0044 | 0.00498 | 0.00565 | 0.00642
x2 = 0.1436 | 0.00254 | 0.00304 | 0.00354 | 0.00413 | 0.00483 | 0.00549 | 0.00631 | 0.00722 | 0.00814 | 0.00941
x2 = 0.2068 | 0.00365 | 0.00427 | 0.00505 | 0.00593 | 0.00696 | 0.00785 | 0.009 | 0.0101 | 0.0116 | 0.0132
x2 = 0.2812 | 0.00514 | 0.00605 | 0.00709 | 0.0083 | 0.00956 | 0.0109 | 0.0125 | 0.014 | 0.0158 | 0.0179
x2 = 0.3698 | 0.0062 | 0.00747 | 0.00879 | 0.0103 | 0.0119 | 0.0137 | 0.0156 | 0.0178 | 0.0203 | 0.023
x2 = 0.4772 | 0.00811 | 0.00922 | 0.0108 | 0.0129 | 0.0146 | 0.0167 | 0.0193 | 0.0219 | 0.0247 | 0.0282
x2 = 0.6101 | 0.00938 | 0.0112 | 0.013 | 0.0153 | 0.0176 | 0.0202 | 0.0231 | 0.0259 | 0.029 | 0.033
x2 = 0.7788 | 0.0106 | 0.0125 | 0.0148 | 0.0174 | 0.0202 | 0.0229 | 0.026 | 0.0294 | 0.0329 | 0.0368

Nc1ncc(Br)nc1Br + CCO + O
solubility (g/100 g solution)
Conditions | 278.15 K | 283.15 K | 288.15 K | 293.15 K | 298.15 K | 303.15 K | 308.15 K | 313.15 K | 318.15 K | 323.15 K
x2 = 0.04165 | 0.0211 | 0.0254 | 0.0296 | 0.0345 | 0.0394 | 0.044 | 0.0494 | 0.0552 | 0.0608 | 0.0668
x2 = 0.08908 | 0.0644 | 0.0768 | 0.0889 | 0.102 | 0.116 | 0.128 | 0.142 | 0.158 | 0.172 | 0.188
x2 = 0.1436 | 0.124 | 0.148 | 0.171 | 0.197 | 0.222 | 0.245 | 0.271 | 0.299 | 0.326 | 0.354
x2 = 0.2068 | 0.179 | 0.214 | 0.249 | 0.286 | 0.324 | 0.358 | 0.395 | 0.438 | 0.479 | 0.521
x2 = 0.2812 | 0.211 | 0.256 | 0.304 | 0.349 | 0.397 | 0.444 | 0.493 | 0.546 | 0.604 | 0.661
x2 = 0.3698 | 0.245 | 0.296 | 0.35 | 0.412 | 0.474 | 0.527 | 0.589 | 0.656 | 0.726 | 0.798
x2 = 0.4772 | 0.274 | 0.338 | 0.41 | 0.481 | 0.546 | 0.618 | 0.693 | 0.776 | 0.863 | 0.957
x2 = 0.6101 | 0.321 | 0.396 | 0.476 | 0.557 | 0.644 | 0.729 | 0.82 | 0.919 | 1.03 | 1.15
x2 = 0.7788 | 0.4 | 0.489 | 0.59 | 0.683 | 0.792 | 0.891 | 1 | 1.13 | 1.26 | 1.4

O=C1C=CC(=O)N1c1ccccc1Br + CCO + O
solubility (g/100 g solution)
Conditions | 278.15 K | 283.15 K | 288.15 K | 293.15 K | 298.15 K | 303.15 K | 308.15 K | 313.15 K | 318.15 K | 323.15 K
x2 = 0.04165 | 0.529 | 0.674 | 0.862 | 1.08 | 1.34 | 1.67 | 2.03 | 2.48 | 2.98 | 3.59
x2 = 0.08908 | 0.965 | 1.24 | 1.54 | 1.93 | 2.39 | 2.94 | 3.58 | 4.39 | 5.22 | 6.22
x2 = 0.1436 | 1.66 | 2.09 | 2.65 | 3.22 | 3.94 | 4.8 | 5.87 | 6.98 | 8.31 | 9.86
x2 = 0.2068 | 2.5 | 3.13 | 3.83 | 4.75 | 5.68 | 6.85 | 8.18 | 9.81 | 11.5 | 13.3
x2 = 0.2812 | 3.54 | 4.34 | 5.21 | 6.34 | 7.51 | 9.04 | 10.5 | 12.3 | 14.3 | 16.5
x2 = 0.3698 | 4.32 | 5.25 | 6.3 | 7.63 | 8.97 | 10.7 | 12.4 | 14.4 | 16.6 | 18.8
x2 = 0.4772 | 4.85 | 5.92 | 7.08 | 8.5 | 10 | 11.8 | 13.7 | 15.7 | 18.1 | 20.8
x2 = 0.6101 | 5.33 | 6.52 | 7.78 | 9.33 | 11 | 12.9 | 15.1 | 17.4 | 19.9 | 22.6
x2 = 0.7788 | 5.65 | 6.85 | 8.21 | 9.83 | 11.7 | 13.6 | 15.8 | 18.6 | 20.8 | 23.7

O=c1cc(CBr)c2ccccc2[nH]1 + CCO + O
solubility (g/100 g solution)
Conditions | 278.15 K | 283.15 K | 288.15 K | 293.15 K | 298.15 K | 303.15 K | 308.15 K | 313.15 K | 318.15 K
x2 = 0.04165 | 0.0134 | 0.0174 | 0.023 | 0.0295 | 0.038 | 0.0476 | 0.0598 | 0.0753 | 0.0924
x2 = 0.08908 | 0.0233 | 0.0297 | 0.037 | 0.0455 | 0.0569 | 0.0694 | 0.0854 | 0.104 | 0.123
x2 = 0.1436 | 0.0341 | 0.042 | 0.0509 | 0.0622 | 0.075 | 0.0906 | 0.106 | 0.127 | 0.151
x2 = 0.2068 | 0.0469 | 0.0559 | 0.0666 | 0.0787 | 0.0931 | 0.11 | 0.128 | 0.148 | 0.172
x2 = 0.2812 | 0.0609 | 0.0715 | 0.0837 | 0.0964 | 0.112 | 0.13 | 0.148 | 0.168 | 0.193
x2 = 0.3698 | 0.0732 | 0.0845 | 0.0974 | 0.111 | 0.128 | 0.145 | 0.163 | 0.184 | 0.209
x2 = 0.4772 | 0.0832 | 0.0948 | 0.109 | 0.123 | 0.138 | 0.157 | 0.176 | 0.196 | 0.221
x2 = 0.6101 | 0.0917 | 0.103 | 0.116 | 0.131 | 0.147 | 0.164 | 0.182 | 0.202 | 0.224
x2 = 0.7788 | 0.0963 | 0.108 | 0.12 | 0.134 | 0.15 | 0.165 | 0.182 | 0.201 | 0.219
